Counter-ions that a name gives are not always drawn.
Target: T1, recombinant human AMPK complex, containing α2β1γ2 (Homo sapiens, UniProt P54646+Q9Y478)
T1 construct: hsAMPKα2-552-His, hsAMPKβ1-2-270 and hsAMPKγ-2-569 respectively; hsAMPKβ1-2-270; hsAMPKγ-2-569; His (C); made in house; host or cells: Spodoptera frugiperda Sf21 (baculovirus)
Test: AMPK in vitro activation assay (HTRF)
Format: biochemical
Settings: for EC50: HTRF, recombinant human α2β1γ2 AMPK, 200 μM ATP, biotinylated ACC-CREBp peptide, repeat determinations on separate lines
Summary of the method: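 HTRF phosphorylation read-out (Eu-cryptate anti-pS133-CREB, streptavidin-XL665) after a 45 min, 37° C kinase step. This step was initiated by a solution with 200 μM ATP and 2 or 0.08 μM biotinylated ACC-CREBp peptide. Beforehand, compound sat 30 min at room temperature with baculovirus/Sf21 α2β1γ2 in pH 7.0 HEPES buffer; EC50 derived from activation over basal.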

[1] = potentiation of AMPK activity as percent over the basal signal (without compound)

T1 sequence (P54646 2-552): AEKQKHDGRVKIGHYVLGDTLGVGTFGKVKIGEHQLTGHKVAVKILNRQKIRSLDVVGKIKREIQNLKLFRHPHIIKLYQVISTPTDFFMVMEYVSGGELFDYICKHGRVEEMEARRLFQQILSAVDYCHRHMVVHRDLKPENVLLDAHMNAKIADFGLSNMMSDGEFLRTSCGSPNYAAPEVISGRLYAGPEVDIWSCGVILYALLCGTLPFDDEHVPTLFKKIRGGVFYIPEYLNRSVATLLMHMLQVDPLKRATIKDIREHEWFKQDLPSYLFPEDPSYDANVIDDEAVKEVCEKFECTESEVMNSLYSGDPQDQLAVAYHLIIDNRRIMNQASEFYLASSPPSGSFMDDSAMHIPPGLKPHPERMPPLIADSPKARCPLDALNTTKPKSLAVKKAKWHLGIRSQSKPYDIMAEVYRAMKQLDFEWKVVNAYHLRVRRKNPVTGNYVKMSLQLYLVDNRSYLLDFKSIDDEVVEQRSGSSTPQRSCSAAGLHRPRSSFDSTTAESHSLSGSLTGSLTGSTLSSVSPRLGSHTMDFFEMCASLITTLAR
T1 sequence (Q9Y478 2-270): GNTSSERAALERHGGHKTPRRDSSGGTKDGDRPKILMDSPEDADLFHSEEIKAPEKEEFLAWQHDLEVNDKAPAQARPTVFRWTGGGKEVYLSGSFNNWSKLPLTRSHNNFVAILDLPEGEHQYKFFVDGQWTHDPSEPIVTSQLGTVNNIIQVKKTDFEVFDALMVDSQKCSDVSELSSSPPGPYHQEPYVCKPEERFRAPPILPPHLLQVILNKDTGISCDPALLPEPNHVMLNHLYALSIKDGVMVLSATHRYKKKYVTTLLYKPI
T1 sequence (Q9UGJ0 2-569 partner limits assumed): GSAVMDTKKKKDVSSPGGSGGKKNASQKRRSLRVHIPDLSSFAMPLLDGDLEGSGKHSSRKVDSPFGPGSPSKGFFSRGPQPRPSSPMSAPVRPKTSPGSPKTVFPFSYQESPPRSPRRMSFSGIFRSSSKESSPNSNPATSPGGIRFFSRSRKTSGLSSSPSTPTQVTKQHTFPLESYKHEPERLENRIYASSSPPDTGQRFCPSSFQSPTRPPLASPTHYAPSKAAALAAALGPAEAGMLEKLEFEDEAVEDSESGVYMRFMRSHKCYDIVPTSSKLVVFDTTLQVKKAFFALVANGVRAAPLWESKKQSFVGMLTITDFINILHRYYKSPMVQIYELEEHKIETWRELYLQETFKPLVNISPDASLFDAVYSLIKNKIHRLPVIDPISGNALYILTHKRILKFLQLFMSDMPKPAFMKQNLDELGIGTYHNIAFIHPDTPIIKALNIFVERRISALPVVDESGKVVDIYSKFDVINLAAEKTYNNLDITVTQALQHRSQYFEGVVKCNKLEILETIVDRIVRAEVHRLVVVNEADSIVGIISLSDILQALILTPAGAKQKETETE

SMILES	EC50	α2β1γ2 AMPK Emax [1]	Emax [1]
O=C1Nc2cc(Cl)c(-c3ccc(C4(CO)CC4)cc3)cc2C1=C([O-])c1ccccc1F.[Na+] [Compound 47, 6-Chloro-3-[1-(2-fluoro-phenyl)-1-hydroxy-methylidene]-5-[4-(1-hydroxymethyl-cyclopropyl)-phenyl]-1,3-dihydro-indol-2-one, sodium salt]	0.025 µM	(94) %	
O=C1Nc2cc(Cl)c(-c3ccc(N4CCOCC4)cc3)cc2C1=C(O)c1cccc(C(=O)O)c1 [Compound 4, 3-{[6-Chloro-5-(4-morpholin-4-yl-phenyl)-2-oxo-1,2-dihydro-indolylidene]-hydroxy-methyl}-benzoic acid]	0.015 µM		97%
Cc1cc(C(O)=C2C(=O)Nc3cc(Cl)c(-c4ccc(-c5ccco5)cc4)cc32)on1 [Compound 65, 6-Chloro-5-(4-furan-2-yl-phenyl)-3-[1-hydroxy-1-(3-methyl-isoxazol-5-yl)methylidene]-1,3-dihydro-indol-2-one]	0.12 µM		113%
Cc1cc(C(O)=C2C(=O)Nc3cc(Cl)c(-c4ccc(N5CCOCC5)cc4)cc32)no1 [Compound 28, 6-Chloro-3-[1-hydroxy-1-(5-methyl-isoxazol-3-yl)-methylidene]-5-(4-morpholin-4-yl-phenyl)-1,3-dihydro-indol-2-one]	0.13 µM		150%
Cc1cc(C(O)=C2C(=O)Nc3cc(Cl)c(-c4ccc(F)cc4O)cc32)on1 [Compound 56, 6-Chloro-5-(4-fluoro-2-hydroxy-phenyl)-3-[1-hydroxy-1-(3-methyl-isoxazol-5-yl)-methylidene]-1,3-dihydro-indol-2-one]	0.15 µM		189%
CN(C)c1ccc(-c2cc3c(cc2Cl)NC(=O)C3=C(O)c2cccc(C(=O)O)c2)cc1 [Compound 8, 3-{[6-Chloro-5-(4-dimethylamino-phenyl)-2-oxo-1,2-dihydro-indolylidene]-hydroxy-methyl}-benzoic acid]	0.033 µM		124%
CCc1ccc(-c2cc3c(cc2Cl)NC(=O)C3=C(O)c2cc(C)no2)cc1 [Compound 64, 6-Chloro-5-(4-ethyl-phenyl)-3-[1-hydroxy-1-(3-methyl-isoxazol-5-yl)-methylidene]-1,3-dihydro-indol-2-one]	1.63 µM		141%
Cc1ncc(C(O)=C2C(=O)Nc3cc(Cl)c(-c4ccc(N(C)C)cc4)cc32)s1 [Compound 10, 6-Chloro-5-(4-dimethylamino-phenyl)-3-[1-hydroxy-1-(2-methyl-thiazol-5-yl)-methylidene]-1,3-dihydro-indol-2-one]	0.089 µM		127%
Cc1cc(C(O)=C2C(=O)Nc3cc(Cl)c(-c4ccc(C#N)cc4)cc32)on1 [Compound 38, 4-{6-Chloro-3-[1-hydroxy-1-(3-methyl-isoxazol-5-yl)-methylidene]-2-oxo-2,3-dihydro-1H-indol-5-yl}-benzonitrile]	0.7 µM		133%
Cc1cc(C(O)=C2C(=O)Nc3cc(Cl)c(-c4ccc(C5=CCOCC5)cc4)cc32)sn1 [Compound 48, 6-Chloro-5-[4-(3,6-dihydro-2H-pyran-4-yl)-phenyl]-3-[1-hydroxy-1-(3-methyl-isothiazol-5-yl)-methylidene]-1,3-dihydro-indol-2-one]	0.095 µM		87%
Cc1cc(C(O)=C2C(=O)Nc3cc(Cl)c(-c4ccc(C5(CO)CC5)cc4)cc32)sn1 [Compound 23, 6-Chloro-5-[4-(1-hydroxymethyl-cyclopropyl)-phenyl]-3-[1-hydroxy-1-(3-methyl-isothiazol-5-yl)-methylidene]-1,3-dihydro-indol-2-one]	0.003 µM		158%
COc1cccc(-c2ccc(-c3cc4c(cc3Cl)NC(=O)C4=C(O)c3cc(C)ns3)cc2)c1O [Compound 42, 6-Chloro-5-(2′-hydroxy-3′-methoxy-biphenyl-4-yl)-3-[1-hydroxy-1-(3-methyl-isothiazol-5-yl)-methylidene]-1,3-dihydro-indol-2-one]	0.027 µM		132%
O=C1Nc2cc(Cl)c(-c3ccc(N4CCOCC4)cc3)cc2C1=C(O)c1ccno1 [Compound 59, 6-Chloro-3-[1-hydroxy-1-isoxazol-5-yl-methylidene]-5-(4-morpholin-4-yl-phenyl)-1,3-dihydro-indol-2-one]	0.029 µM		245%
O=C1Nc2cc(Cl)c(-c3ccc(N4CCOCC4)cc3)cc2C1=C(O)c1cc(C2CC2)on1 [Compound 62, 6-Chloro-3-[1-(5-cyclopropyl-isoxazol-3-yl)-1-hydroxy-methylidene]-5-(4-morpholin-4-yl-phenyl)-1,3-dihydro-indol-2-one]	0.098 µM		254%
N#Cc1cccc(C(O)=C2C(=O)Nc3cc(Cl)c(-c4ccc(N5CCOCC5)cc4)cc32)c1 [Compound 18, 3-{[6-Chloro-5-(4-morpholin-4-yl-phenyl)-2-oxo-1,2-dihydro-indolylidene]-hydroxy-methyl}-benzonitrile]	0.19 µM		135%

Next, values leading:

EC50	α2β1γ2 AMPK Emax [1]	Emax [1]	SMILES
0.036 µM		159%	COc1cc(C(O)=C2C(=O)Nc3cc(Cl)c(-c4ccc(OCc5cccnc5)cc4)cc32)on1 [Compound 100, 6-chloro-3-[hydroxy-(3-methoxyisoxazol-5-yl)methylene]-5-[4-(3-pyridylmethoxy)phenyl]indolin-2-one]
0.0006 µM		141%	O=C1Nc2cc(Cl)c(-c3ccc(C4(CO)CC4)cc3)cc2C1=C(O)c1cc2cccnc2o1 [Compound 157, 6-chloro-3-[furo[2,3-b]pyridin-2-yl(hydroxy)methylene]-5-[4-[1-(hydroxymethyl)cyclopropyl]phenyl]indolin-2-one]
0.0003 µM		295%	O=C1Nc2cc(Cl)c(-c3ccc(C4(CO)CC4)cc3)cc2C1=C(O)c1ccco1 [Compound 126, 6-chloro-3-[2-furyl(hydroxy)methylene]-5-[4-[1-(hydroxymethyl)cyclopropyl]phenyl]indolin-2-one]
0.016 µM		114%	COCCOc1ccc(-c2cc3c(cc2Cl)NC(=O)C3=C(O)c2cc(C)no2)cc1 [Compound 103, 6-chloro-3-[hydroxy-(3-methylisoxazol-5-yl)methylene]-5-[4-(2-methoxyethoxy)phenyl]indolin-2-one]
0.013 µM		197%	CC(C)(C)c1cc(C(O)=C2C(=O)Nc3cc(Cl)c(-c4ccc(N5CCOCC5)cc4)cc32)on1 [Compound 112, 3-[(3-tert-butylisoxazol-5-yl)-hydroxy-methylene]6-chloro-5-(4-morpholinophenyl)indolin-2-one]
0.013 µM		207%	CC(C)Oc1cc(C(O)=C2C(=O)Nc3cc(Cl)c(-c4ccc(C5CC(O)C5)cc4)cc32)on1 (stereo not shown) [Compound 166, 6-chloro-5-[4-(3-hydroxycyclobutyl)phenyl]-3-[hydroxy-(3-isopropoxyisoxazol-5-yl)methylene]indolin-2-one]
0.003 µM		196%	COc1ccc(C(O)=C2C(=O)Nc3cc(Cl)c(-c4ccc(C5(CO)CC5)cc4)cc32)c(OC)c1 [Compound 163, 6-chloro-3-[(2,4-dimethoxyphenyl)hydroxy-methylene]-5-[4-[1-(hydroxymethyl)cyclopropyl]phenyl]indolin-2-one]
0.112 µM		213%	Cc1cc(C(O)=C2C(=O)Nc3cc(Cl)c(-c4ccc(N5CCN(C)CC5)cc4)cc32)on1 [Compound 74, 6-Chloro-3-[1-hydroxy-1-(3-methyl-isoxazol-5-yl)methylidene]-5-[4-(4-methyl-piperazin-1-yl)-phenyl]-1,3-dihydro-indol-2-one, hydrochloride]
0.026 µM		309%	COc1cc(C(O)=C2C(=O)Nc3cc(Cl)c(-c4ccc(OCc5cncs5)cc4)cc32)on1 [Compound 136, 6-chloro-3-[hydroxy-(3-methoxyisoxazol-5-yl)methylene]-5-[4-(thiazol-5-ylmethoxy)phenyl]indolin-2-one]
0.014 µM		137%	CN1CCC(c2ccc(-c3cc4c(cc3Cl)NC(=O)C4=C(O)c3cc(F)cc(F)c3)cc2)C1 (stereo not shown) [Compound 150, 6-chloro-3-[(3,5-difluorophenyl)hydroxy-methylene]-5-[4-(1-methylpyrrolidin-3-yl)phenyl]indolin-2-one hydrochloride]
0.002 µM		191%	COc1ccc(C(O)=C2C(=O)Nc3cc(Cl)c(-c4ccc(N5CCOCC5)cc4)cc32)c(F)c1F [Compound 98, 6-chloro-3-[(2,3-difluoro-4-methoxy-phenyl)hydroxy-methylene]-5-(4-morpholinophenyl)indolin-2-one]
0.021 µM		227%	COc1ccc(C(O)=C2C(=O)Nc3cc(Cl)c(-c4ccc(N5CCOCC5)cc4)cc32)nc1 [Compound 140, 6-chloro-3-[hydroxy-(5-methoxy-2-pyridyl)methylene]-5-(4-morpholinophenyl)indolin-2-one]
0.002 µM		198%	COc1cnccc1C(O)=C1C(=O)Nc2cc(Cl)c(-c3ccc(C4(CO)CC4)cc3)cc21 [Compound 175, 6-chloro-3-[hydroxy-(3-methoxy-4-pyridyl)methylene]-5-[4-[1-(hydroxymethyl)cyclopropyl]phenyl]indolin-2-one]
0.0007 µM		191%	COc1cc(C(O)=C2C(=O)Nc3cc(Cl)c(-c4ccc(N5CCC5)cc4)cc32)on1 [Compound 162, 5-[4-(azetidin-1-yl)phenyl]6-chloro-3-[hydroxy-(3-methoxyisoxazol-5-yl)methylene]indolin-2-one]

— patent publication US10077237B2 (Sanofi, priority 2013, dated 2018)
